One assay addresses CTX-M-14 (Escherichia coli, UniProt Q9L5C7). Nature of the assay: Inhibition of nitrocefin cleavage by purified CTX-M-14. The assay is classed as biochemical. To be noted: nitrocefin reporter substrate, purified enzyme; read-out: Ki (CTX-M-14, NCF). Summed up: (§1)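 Purified enzyme was preincubated with a range of inhibitor concentrations in reaction buffer for 10 min at room temperature. Nitrocefin was then added and its cleavage followed at 490 nm every 10 sec for 10 min.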

In the next assay the target is KPC-2 (Klebsiella pneumoniae, UniProt Q9F663). Nature of the assay: Inhibition of nitrocefin cleavage by purified KPC-2. It counts as biochemical. To be noted: nitrocefin reporter substrate, purified enzyme; read-out: Ki (KPC-2, NCF). Summed up:
as §1

The target in another assay is CMY-2 (Klebsiella pneumoniae, UniProt Q48434). Nature of the assay: Inhibition of nitrocefin cleavage by purified CMY-2. To be noted: nitrocefin reporter substrate, purified enzyme; read-out: Ki (CMY-2, NCF). It counts as biochemical. On the procedure: (§2) Purified enzymes were mixed with various concentrations of inhibitors in reaction buffer and incubated for 10 min at room temperature. Nitrocefin was added and substrate cleavage profiles were recorded at 490 nm every 10 sec for 10 min.
Chain of CMY-2 (Q48434 21-381, species assumed): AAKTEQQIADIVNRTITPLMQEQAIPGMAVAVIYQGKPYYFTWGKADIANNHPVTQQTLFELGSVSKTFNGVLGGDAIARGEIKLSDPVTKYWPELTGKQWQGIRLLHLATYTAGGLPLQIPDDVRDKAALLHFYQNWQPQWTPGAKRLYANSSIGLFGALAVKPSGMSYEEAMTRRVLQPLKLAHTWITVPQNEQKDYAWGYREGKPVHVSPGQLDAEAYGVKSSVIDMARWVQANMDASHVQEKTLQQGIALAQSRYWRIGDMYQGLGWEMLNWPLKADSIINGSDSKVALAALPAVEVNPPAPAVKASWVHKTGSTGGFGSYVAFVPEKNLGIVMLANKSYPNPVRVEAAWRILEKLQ

The target of a further assay is OXA-48 (Klebsiella pneumoniae, UniProt Q6XEC0). Nature of the assay: Inhibition of nitrocefin cleavage by purified OXA-48. The assay is classed as biochemical. To be noted: nitrocefin reporter substrate, purified enzyme; read-out: Ki (OXA-48, NCF). Summed up:
as §1

The target in a further assay is T1, Trypsin (Bos taurus, UniProt P00760).
T1 construct: purchased Calbiochem 6502
T1 sequence (P00760 24-246): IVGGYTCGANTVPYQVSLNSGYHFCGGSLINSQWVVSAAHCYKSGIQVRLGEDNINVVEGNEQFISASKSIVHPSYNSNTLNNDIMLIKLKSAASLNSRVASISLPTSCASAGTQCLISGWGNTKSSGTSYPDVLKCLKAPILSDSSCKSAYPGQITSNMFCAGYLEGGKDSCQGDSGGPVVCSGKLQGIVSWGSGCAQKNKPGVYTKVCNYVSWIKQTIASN
Nature of the assay: Serine protease inhibition: trypsin. The assay is classed as biochemical, mammalian. To be noted: Table 8A, class symbols; read-out: IC50 Trypsin. On the procedure: (§3) The effect of selected BLIs on the enzymatic activity of some common mammalian serine proteases was evaluated.
(§4) 50 μl of the diluted enzyme was mixed with 50 μl of inhibitor at various concentrations and 50 μl of corresponding buffer (Table 7). Reaction mixtures were incubated for 10 min at 37° C. Subsequently, 50 μl of corresponding substrate (Table 7) was added and absorbance or fluorescence was monitored for 30 min on SpectraMax M2 plate reader (Molecular Devices). 4-(2-Aminoethyl)benzenesulfonyl fluoride hydrochloride (AEBSF) and leupeptin were used as positive controls. Rates of reaction were calculated and presented relative to “no treatment” control.

The target of another assay is T2, Chymotrypsin (Bos taurus, UniProt P00766).
T2 construct: purchased Calbiochem 230832
Nature of the assay: Serine protease inhibition: chymotrypsin. It counts as biochemical, mammalian. The note with it: Table 8A, class symbols; read-out: IC50 Chymotrypsin. On the procedure:
as §3, §4

For another assay, the target named is T3, Thrombin (Homo sapiens, UniProt P00734).
T3 construct: Thrombin; MPBio; 19491880; purchased MPBio 19491880
Nature of the assay: Serine protease inhibition: thrombin. It counts as biochemical, mammalian. The note with it: Table 8A, class symbols; read-out: IC50 Thrombin. On the procedure: as §3, §4

The next assay concerns the target T4, Urokinase (Homo sapiens, UniProt P00749).
T4 construct: purchased Calbiochem 672112
Nature of the assay: Serine protease inhibition: urokinase. The note with it: Table 8A, class symbols; read-out: IC50 Urokinase. It counts as biochemical, mammalian. On the procedure:
as §3, §4

The next assay addresses T5, Neutrophil elastase (Homo sapiens, UniProt P08246).
T5 construct: purchased Calbiochem 324681
T5 sequence (P08246 30-267): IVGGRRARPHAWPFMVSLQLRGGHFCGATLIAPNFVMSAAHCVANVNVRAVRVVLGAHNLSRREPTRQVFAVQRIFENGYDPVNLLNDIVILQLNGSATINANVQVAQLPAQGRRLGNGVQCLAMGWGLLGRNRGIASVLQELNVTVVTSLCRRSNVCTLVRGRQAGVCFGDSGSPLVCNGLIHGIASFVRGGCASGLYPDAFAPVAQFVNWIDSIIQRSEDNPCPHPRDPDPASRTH
As to the kind of experiment: Serine protease inhibition: neutrophil elastase. The note with it: Table 8B; read-out: IC50 Neutrophil elastase. It counts as biochemical, mammalian. On the procedure:
as §3, §4

The target of a further assay is T6, HtrA2 (Homo sapiens, UniProt O43464).
T6 sequence (O43464 134-458): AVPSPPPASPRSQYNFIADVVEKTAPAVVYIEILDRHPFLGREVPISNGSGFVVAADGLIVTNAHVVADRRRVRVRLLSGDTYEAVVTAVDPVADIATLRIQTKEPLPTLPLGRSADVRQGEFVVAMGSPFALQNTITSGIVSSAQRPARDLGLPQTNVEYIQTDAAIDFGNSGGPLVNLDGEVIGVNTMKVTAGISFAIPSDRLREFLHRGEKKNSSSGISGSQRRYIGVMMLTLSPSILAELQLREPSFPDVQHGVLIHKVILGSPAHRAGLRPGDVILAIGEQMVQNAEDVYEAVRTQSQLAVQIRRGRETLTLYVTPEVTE
As to the kind of experiment: Serine protease inhibition: HtrA2. The assay is classed as biochemical, mammalian. To be noted: Table 8B; read-out: IC50 HtrA2. On the procedure:
as §3, §4

Another assay concerns KP1009 (CTX-M-15). Nature of the assay: Potentiation of aztreonam, strain KP1009. It counts as cell-based.
The next assay concerns EC1010 (CMY-6). Nature of the assay: Potentiation of aztreonam, strain EC1010. The assay is classed as cell-based.
The next assay deals with ec302 (TEM-10). As to the kind of experiment: Potentiation of tigemonam, strain ec302. The assay is classed as cell-based.
In the next assay the target is P99 (Enterobacter cloacae, UniProt P05364). Nature of the assay: Inhibition of nitrocefin cleavage by purified P99. It counts as biochemical. The note with it: nitrocefin reporter substrate, purified enzyme; read-out: Ki (P99, NCF). On the procedure: as §2
Chain of P99 (P05364 21-381): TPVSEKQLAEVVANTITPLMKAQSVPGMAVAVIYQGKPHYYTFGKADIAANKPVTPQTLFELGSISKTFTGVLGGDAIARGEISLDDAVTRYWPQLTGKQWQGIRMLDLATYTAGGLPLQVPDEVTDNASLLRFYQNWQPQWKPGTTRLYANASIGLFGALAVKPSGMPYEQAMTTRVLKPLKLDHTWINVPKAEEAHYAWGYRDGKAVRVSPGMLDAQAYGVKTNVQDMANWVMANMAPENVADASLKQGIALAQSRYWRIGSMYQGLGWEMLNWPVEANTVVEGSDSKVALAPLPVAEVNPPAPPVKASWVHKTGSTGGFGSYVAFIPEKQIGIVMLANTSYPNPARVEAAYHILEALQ

The Ki is the dissociation constant of the complex between target and ligand, obtained from inhibition or displacement. In general, IC50 refers to the concentration at which inhibition is half-maximal.

Chain of CTX-M-14 (Q9L5C7 entry or part of it): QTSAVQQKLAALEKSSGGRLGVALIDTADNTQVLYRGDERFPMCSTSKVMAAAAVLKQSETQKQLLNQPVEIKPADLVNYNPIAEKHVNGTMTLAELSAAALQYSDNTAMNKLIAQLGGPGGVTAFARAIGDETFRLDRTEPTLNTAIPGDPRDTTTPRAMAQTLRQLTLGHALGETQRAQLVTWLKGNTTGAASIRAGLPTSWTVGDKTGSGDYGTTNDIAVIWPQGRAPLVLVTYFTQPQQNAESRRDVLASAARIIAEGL
Chain of KPC-2 (Q9F663 25-293, looked up, species assumed): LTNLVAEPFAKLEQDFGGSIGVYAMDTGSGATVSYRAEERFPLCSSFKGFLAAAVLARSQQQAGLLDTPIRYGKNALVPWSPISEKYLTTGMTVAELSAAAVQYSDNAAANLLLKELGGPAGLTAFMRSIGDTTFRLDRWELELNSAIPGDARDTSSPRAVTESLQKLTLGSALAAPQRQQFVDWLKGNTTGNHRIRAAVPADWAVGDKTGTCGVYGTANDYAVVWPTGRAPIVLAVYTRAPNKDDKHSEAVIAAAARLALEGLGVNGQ
Chain of OXA-48 (Q6XEC0 23-265 limits assumed): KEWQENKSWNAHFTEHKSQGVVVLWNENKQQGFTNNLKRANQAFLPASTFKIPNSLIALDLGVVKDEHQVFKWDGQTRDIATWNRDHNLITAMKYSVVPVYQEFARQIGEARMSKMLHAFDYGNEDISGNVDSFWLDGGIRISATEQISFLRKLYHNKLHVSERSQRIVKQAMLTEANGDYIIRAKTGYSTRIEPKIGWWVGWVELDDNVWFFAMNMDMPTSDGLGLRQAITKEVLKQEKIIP

As to `O=C(Cc1cccs1)N[C@H]1Cc2cccc(C(=O)O)c2OB1O` [CPD A, reference compound], the Ki was under 0.001 µM on CTX-M-14, over 0.01 µM at KPC-2, under 0.001 µM on CMY-2 and under 0.001 µM at OXA-48. Besides, the IC50 on Trypsin is over 800 µM; at Chymotrypsin it was under 300 µM; at Thrombin it was under 300 µM; at Urokinase, over 800 µM; on Neutrophil elastase it was 15 to 500 µM; on HtrA2 it was over 500 µM.

As to `O=C(CSc1nncs1)N[C@H]1Cc2cccc(C(=O)O)c2OB1O` [Compound 7, (R)-3-(2-(1,3,4-thiadiazol-2-ylthio)acetamido)-2-hydroxy-3,4-dihydro-2H-benzo[e][1,2]oxaborinine-8-carboxylic acid], the “AZT MPC4 CTX-M-15 KP1009” value in the assay on KP1009 (CTX-M-15) was “X (key: X = MIC of less than 1 μg/mL; Y = MIC of 1 μg/mL to 10 μg/mL; Z = MIC of greater than 10 μg/mL)”. Moreover, the “AZT MPC4 CMY-6 EC1010” value in the assay with EC1010 (CMY-6) is “X (key: X = MIC of less than 1 μg/mL; Y = MIC of 1 μg/mL to 10 μg/mL; Z = MIC of greater than 10 μg/mL)”. Besides, the “TIG MPC4 TEM-10 ec302” value with ec302 (TEM-10) was “Y (key: X = MIC of less than 1 μg/mL; Y = MIC of 1 μg/mL to 10 μg/mL; Z = MIC of greater than 10 μg/mL)”. In addition, the Ki at CTX-M-14 is under 0.001 µM; on KPC-2, over 0.01 µM; at P99, under 0.001 µM; at CMY-2, under 0.001 µM. Moreover, the IC50 on Trypsin was over 800 µM; on Chymotrypsin, over 800 µM; at Thrombin, over 800 µM; on Urokinase it was over 800 µM; at Neutrophil elastase, over 500 µM.

As to `O=CN[C@H]1Cc2cccc(C(=O)O)c2OB1O` [Compound 4, (R)-3-formamido-2-hydroxy-3,4-dihydro-2H-benzo[e][1,2]oxaborinine-8-carboxylic acid], the “AZT MPC4 CMY-6 EC1010” value with EC1010 (CMY-6) is “X (key: X = MIC of less than 1 μg/mL; Y = MIC of 1 μg/mL to 10 μg/mL; Z = MIC of greater than 10 μg/mL)”. Also, the Ki on CTX-M-14, on P99, at CMY-2 and at OXA-48 was 0.001 to 0.01 µM throughout. Also, the IC50 was over 800 µM at Trypsin; over 800 µM on Chymotrypsin; over 800 µM at Thrombin; over 800 µM at Urokinase; over 500 µM on Neutrophil elastase; over 500 µM at HtrA2.

`[N-]=[N+]=NCC(=O)N[C@H]1Cc2cccc(C(=O)O)c2OB1O` [Compound 8, (R)-3-(2-azidoacetamido)-2-hydroxy-3,4-dihydro-2H-benzo[e][1,2]oxaborinine-8-carboxylic acid]: the “AZT MPC4 CTX-M-15 KP1009” value in the assay with KP1009 (CTX-M-15) was “X (key: X = MIC of less than 1 μg/mL; Y = MIC of 1 μg/mL to 10 μg/mL; Z = MIC of greater than 10 μg/mL)”. Moreover, the “AZT MPC4 CMY-6 EC1010” value in the assay with EC1010 (CMY-6) is “X (key: X = MIC of less than 1 μg/mL; Y = MIC of 1 μg/mL to 10 μg/mL; Z = MIC of greater than 10 μg/mL)”. Besides, the “TIG MPC4 TEM-10 ec302” value in the assay on ec302 (TEM-10) is given as “Y (key: X = MIC of less than 1 μg/mL; Y = MIC of 1 μg/mL to 10 μg/mL; Z = MIC of greater than 10 μg/mL)”. Also, the results for the Ki on KPC-2 and at OXA-48 were over 0.01 µM and under 0.001 µM, respectively. Further, the IC50 is over 800 µM on Trypsin; over 800 µM at Chymotrypsin; over 800 µM on Thrombin; over 800 µM on Urokinase; over 500 µM on Neutrophil elastase; over 500 µM at HtrA2.

Turning to `CSC(=O)N[C@H]1Cc2cccc(C(=O)O)c2OB1O` [Compound 11, (R)-2-hydroxy-3-(methylthiocarbonylamino)-3,4-dihydro-2H-benzo[e][1,2]oxaborinine-8-carboxylic acid], the “AZT MPC4 CTX-M-15 KP1009” value in the assay with KP1009 (CTX-M-15) is given as “Y (key: X = MIC of less than 1 μg/mL; Y = MIC of 1 μg/mL to 10 μg/mL; Z = MIC of greater than 10 μg/mL)”. In the assay on EC1010 (CMY-6), the “AZT MPC4 CMY-6 EC1010” value was “Y (key: X = MIC of less than 1 μg/mL; Y = MIC of 1 μg/mL to 10 μg/mL; Z = MIC of greater than 10 μg/mL)”. Further, the “TIG MPC4 TEM-10 ec302” value with ec302 (TEM-10) was “Z (key: X = MIC of less than 1 μg/mL; Y = MIC of 1 μg/mL to 10 μg/mL; Z = MIC of greater than 10 μg/mL)”. Besides, the Ki was over 0.01 µM at KPC-2, under 0.001 µM on P99, under 0.001 µM at CMY-2 and under 0.001 µM at OXA-48. The IC50 at Trypsin was over 800 µM; on Chymotrypsin it was over 800 µM; on Thrombin, over 800 µM; at Urokinase, over 800 µM; on Neutrophil elastase it was over 500 µM.

Turning to `O=C(CSC(F)F)N[C@H]1Cc2cccc(C(=O)O)c2OB1O` [Compound 3, (R)-3-(2-(difluoromethylthio)acetamido)-2-hydroxy-3,4-dihydro-2H-benzo[e][1,2]oxaborinine-8-carboxylic acid], the “AZT MPC4 CTX-M-15 KP1009” value with KP1009 (CTX-M-15) is reported as “Y (key: X = MIC of less than 1 μg/mL; Y = MIC of 1 μg/mL to 10 μg/mL; Z = MIC of greater than 10 μg/mL)”. The inhibition constant (Ki) on KPC-2 was over 0.01 µM; on P99, under 0.001 µM; at OXA-48, under 0.001 µM. Also, the IC50 at Trypsin is over 800 µM; on Chymotrypsin it was over 800 µM; on Thrombin it was over 800 µM; on Urokinase it was over 800 µM; at Neutrophil elastase, 15 to 500 µM; at HtrA2, over 500 µM.

`Nc1nnc(SCC(=O)N[C@H]2Cc3cccc(C(=O)O)c3OB2O)s1` [Compound 5, (R)-3-(2-(5-amino-1,3,4-thiadiazol-2-ylthio)acetamido)-2-hydroxy-3,4-dihydro-2H-benzo[e][1,2]oxaborinine-8-carboxylic acid]: the “AZT MPC4 CTX-M-15 KP1009” value with KP1009 (CTX-M-15) is “X (key: X = MIC of less than 1 μg/mL; Y = MIC of 1 μg/mL to 10 μg/mL; Z = MIC of greater than 10 μg/mL)”. Besides, the “AZT MPC4 CMY-6 EC1010” value in the assay on EC1010 (CMY-6) is on record as “X (key: X = MIC of less than 1 μg/mL; Y = MIC of 1 μg/mL to 10 μg/mL; Z = MIC of greater than 10 μg/mL)”. The “TIG MPC4 TEM-10 ec302” value with ec302 (TEM-10) is “Y (key: X = MIC of less than 1 μg/mL; Y = MIC of 1 μg/mL to 10 μg/mL; Z = MIC of greater than 10 μg/mL)”. For the same compound, the Ki at CTX-M-14 was 0.001 to 0.01 µM; at KPC-2 it was over 0.01 µM. In addition, the half-maximal inhibitory concentration (IC50) at Trypsin was over 800 µM; at Chymotrypsin, over 800 µM; at Thrombin, over 800 µM; on Urokinase, over 800 µM; at Neutrophil elastase, over 500 µM; on HtrA2, over 500 µM.

The record behind these values is US9101638B2, “Boronic acid derivatives and therapeutic uses thereof” (Rempex Pharmaceuticals, Inc., priority 2013, dated 2015).
